Reference: patent US20210330756A1, “Acetylation of Miro1” (University of South Carolina, priority 2020, published 2021)

Tested on: Miro1
Experiment: Anti-Ac-Lys immunoprecipitation of Miro1 from DRG lysates
Assay type: cell-based, rat
Description: Protein acetylome profiles from nonneuronal cells have reported acetylation of Miro1/2 and Milton 1/2 but not of Syntaphilin (Choudhary et al., 2009; Lundby et al., 2012; Wagner et al., 2012).
DRG neurons were lysed in 100 mM KCl, 5 mM MgCl2, 10 mM Hepes, pH 7.4, 1 mM DTT, and 0.5% NP-40 supplemented with lx protease inhibitor cocktail (Roche). The lysates were passed through a 25-gauge needle five times and cleared by centrifugation at 12,000 g for […]. Equal amounts of the supernatants were then incubated with primary antibodies overnight, and immunocomplexes were precipitated with Protein G-Dynabeads (Invitrogen) for an additional 2 h at 4° C. with rotation. A cocktail of rabbit and mouse anti-Ac-Lys antibodies (5 μg each; Cell Signaling; 9441 and 9681) was used directly for analyses of Myc-Miro1 transfected cultures by immunoprecipitation. For analysis of endogenous Miro1 acetylation, the anti-Lys antibody cocktail (5 μg of each) was directly cross-linked to 5 mg of M-270 epoxy beads (Dynabeads) using the Dynabeads antibody coupling kit according to the manufacturer's instructions (Life Technologies; 14311D). […]
For immunoblotting, protein lysates or immunoprecipitates were denatured by boiling in Laemmli sample buffer, fractionated by SDS-PAGE, and transferred to nitrocellulose membranes. […] Signals were detected using ECL Prime (GE Healthcare) after extensive washing.

SMILES: CN1CCc2c(c3ccccc3n2Cc2ccc(C(=O)NO)cc2)C1 [TubA, tubastatin]
- pull-down efficiency of Miro1 with anti-Ac-Lys antibody cocktail (10 μM TubA for 4 h, n=4): 14.1±2.2%
- anti-Ac-Lys immunoprecipitated Miro1 band (treatment with TubA): modestly increasing
